# Patent publication US7851487B2, “Use of tetrahydropyridines in the treatment of central nervous system disorders” (The Research Foundation of State University of New York, priority 2006, dated 2010)
# How the values were obtained:
# ckr mouse = assay: Prepulse inhibition (PPI) of the startle reflex in ckr mice; type: in vivo; settings: 10 mg/kg
# Description: To obtain the ckr mouse model presented in this Example, a representative compound 2 as set forth in Example 3 was used to investigate a standard measure of sensorimotor gating of the startle reflex. Sensorimotor gating of the startle reflex was assessed via measures of prepulse inhibition (PPI), which is the reduction in startle magnitude when the startling stimulus is preceded immediately by a weak prepulse. This measurement is valuable because the relative loss of PPI has been established in inherited neurodevelopmental disorders, such as schizophrenia in humans, as well as in rats after treatment with certain classes of drugs, including serotonin (5-HT) agonists. In animal models, the PPI test is considered to have good face, predictive and construct validity for sensorimotor gating deficits in schizophrenia.
# A stock solution of compound 2 was dissolved in DMSO, and then diluted to 10 mg/10 ml with distilled water such that the final concentration of DMSO was 0.5%. […]
# Startle reactivity was measured using a startle chamber (SR-LAB, San Diego Instruments, San Diego, Calif.). […]
# The protocol for measuring PPI was adapted from known techniques. […] The startle response was recorded as the average movement detected over 65 ms following the pulse. […]
# The startle amplitude was measured as the average startle response for the pulse-alone trials. […]
# Dopamine D2s = molecular target: T1, Dopamine D2s (Homo sapiens, UniProt P14416); assay: Radioligand binding, Dopamine D2S ([3H]Spiperone)
# T1 construct: host or cells: CHO cells
# T1 sequence (P14416 1-414 isoform P14416-2): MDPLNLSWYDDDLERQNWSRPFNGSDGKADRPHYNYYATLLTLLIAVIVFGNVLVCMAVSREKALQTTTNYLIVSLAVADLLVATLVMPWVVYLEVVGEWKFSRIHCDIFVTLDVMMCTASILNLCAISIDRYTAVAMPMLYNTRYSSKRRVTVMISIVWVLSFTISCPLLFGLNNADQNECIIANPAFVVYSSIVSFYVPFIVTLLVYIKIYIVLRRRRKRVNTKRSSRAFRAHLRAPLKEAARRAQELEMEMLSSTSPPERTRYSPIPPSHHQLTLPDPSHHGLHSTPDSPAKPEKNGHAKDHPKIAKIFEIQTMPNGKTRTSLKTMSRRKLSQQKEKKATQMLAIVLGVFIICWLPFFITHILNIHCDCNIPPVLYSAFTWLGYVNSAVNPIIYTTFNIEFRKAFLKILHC
# Description: (§1) The assays utilized human neuroreceptors and were performed under the experimental parameters set forth in Table 2 using standard techniques.
# (§2) For Table 3, IC50 values were determined by non-linear, least squares regression analysis using Data Analysis Toolbox™ (MDL Information Systems, San Leandro, Calif., USA). Inhibition constants (KI) were calculated using the equation of Cheng and Prusoff (Cheng, Y., et al. Biochem. Pharmacol. 22:3099-3108, 1973) using the observed IC50 of the tested compound, the concentration of radioligand employed in the assay, and the values for the KD of the ligand. The Hill coefficient (nH), defining the slope of the competitive binding curve, was calculated using the Data Analysis Toolbox™. Biochemical assay results are presented as the percent inhibition of specific binding or activity unless indicated otherwise. The experiments summarized in Table 3 utilized human dopamine D1, D2 s, D21, D3, D4.2, D4.4, serotonin 5HT1A, 5HT2A, 5HT2C, 5HT6, 5HT7, dopamine transporter (DAT), serotonin transporter (SERT) and the norepinephrine transporter (NET), as indicated in Table 3.
# Serotonin 5HT2C = molecular target: T2, Serotonin 5HT2C (Homo sapiens, UniProt P28335); assay: Radioligand binding, Serotonin 5HT2C ([3H]Mesulergine)
# T2 construct: host or cells: CHO-K1 cells
# T2 sequence (P28335 33-458): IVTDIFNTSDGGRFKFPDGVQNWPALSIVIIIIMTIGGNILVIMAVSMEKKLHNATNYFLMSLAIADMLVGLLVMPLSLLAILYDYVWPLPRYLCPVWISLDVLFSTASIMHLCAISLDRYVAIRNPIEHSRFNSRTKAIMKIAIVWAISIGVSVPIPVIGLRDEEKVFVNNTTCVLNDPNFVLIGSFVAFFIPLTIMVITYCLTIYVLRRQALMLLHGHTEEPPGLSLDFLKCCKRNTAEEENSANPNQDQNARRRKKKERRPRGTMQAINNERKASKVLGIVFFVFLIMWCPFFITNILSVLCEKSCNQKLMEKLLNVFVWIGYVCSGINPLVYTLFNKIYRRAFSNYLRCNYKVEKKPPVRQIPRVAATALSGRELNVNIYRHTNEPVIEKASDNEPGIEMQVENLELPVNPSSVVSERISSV
# Description: as §1, §2
# [1] = molecular target: T3, Norepinephrine transporter (NET) (Homo sapiens, UniProt P23975); assay: Radioligand binding, Norepinephrine transporter (NET) ([125I]RTI-55)
# T3 construct: host or cells: MDCK cells
# T3 sequence (P23975 whole entry): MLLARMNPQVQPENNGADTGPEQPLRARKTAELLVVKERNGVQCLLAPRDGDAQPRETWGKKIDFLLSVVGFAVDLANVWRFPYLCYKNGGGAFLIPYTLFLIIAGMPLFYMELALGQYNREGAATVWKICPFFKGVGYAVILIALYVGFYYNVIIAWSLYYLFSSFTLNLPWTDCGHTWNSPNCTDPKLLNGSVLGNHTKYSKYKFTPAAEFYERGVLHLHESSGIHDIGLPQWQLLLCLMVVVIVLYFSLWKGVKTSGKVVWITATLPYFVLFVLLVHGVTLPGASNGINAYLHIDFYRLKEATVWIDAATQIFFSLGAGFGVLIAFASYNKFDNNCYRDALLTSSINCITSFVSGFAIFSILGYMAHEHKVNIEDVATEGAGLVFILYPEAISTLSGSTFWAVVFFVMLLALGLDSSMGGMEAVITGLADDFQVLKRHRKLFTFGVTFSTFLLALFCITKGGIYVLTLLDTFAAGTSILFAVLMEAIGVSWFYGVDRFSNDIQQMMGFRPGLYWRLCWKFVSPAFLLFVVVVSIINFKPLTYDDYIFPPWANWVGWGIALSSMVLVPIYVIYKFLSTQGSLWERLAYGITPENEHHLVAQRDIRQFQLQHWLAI
# Description: as §1, §2
smiles,measurement,setting,value
COC(=O)[C@@H](c1ccc(-c2ccccc2)cc1)[C@H]1C=CCCN1 [Compound 2],PPI over the control across all pre-pulse intensities,ckr mouse,trend of increased PPI
same,IC50,Dopamine D2s,51.8 µM
same,Ki,Dopamine D2s,18.7 µM
same,inhibition at 10 µM,"Dopamine D2s; Dopamine D2s, 10 μM, read-out: Percentage Inhibition",26%
same,inhibition at 100 µM,"Dopamine D2s; Dopamine D2s, 100 μM, read-out: Percentage Inhibition",62%
same,nH,"Dopamine D2s; Dopamine D2s, Hill coefficient",0.788
same,IC50,Serotonin 5HT2C,13.4 µM
same,Ki,Serotonin 5HT2C,7.03 µM
same,inhibition at 10 µM,"Serotonin 5HT2C; Serotonin 5HT2C, 10 μM, read-out: Percentage Inhibition",52%
same,inhibition at 30 µM,"Serotonin 5HT2C; Serotonin 5HT2C, 30 μM, read-out: Percentage Inhibition",70%
same,nH,"Serotonin 5HT2C; Serotonin 5HT2C, Hill coefficient",1.12
same,IC50,[1],10 µM
same,Ki,[1],9.94 µM
same,inhibition at 10 µM,"[1]; Norepinephrine transporter (NET), 10 μM, read-out: Percentage Inhibition",51%
same,nH,"[1]; Norepinephrine transporter (NET), Hill coefficient",1.1
